The nature of data set [1]: Metabolic Stability in Human Liver Microsomes. The class given is in vitro ADME. As to the method:
Metabolic Stability in Human Liver Microsomes
Human liver microsome (BD Gentest Corporation, Cat No. #452161) incubations were conducted in duplicate in 96-well plates. Each well contains 40 μL of 0.1 M potassium phosphate buffer (pH 7.4), 4.125 mM MgCl2, 0.625 mg/mL liver microsomes, and test compound (1.25 μM). After 5-min preincubation at 37° C., 10 uL of 5.0 mM NADPH in 0.1M potassium phosphate buffer was added to initiate the enzymatic reaction. The final component concentrations are 0.1M potassium phosphate buffer (pH 7.4), 1.0 mM NADPH, 3.3 mM MgCl2, 0.5 mg/mL liver microsomes, and test compound (1.0 μM). Reactions were terminated at 0 and 60 min by adding 200 μL of ice-cold acetonitrile containing internal standard.
LC-MS/MS analysis was conducted as specified below.
The remaining at 60 min (%) of test compound was calculated from the peak area ratio (test compound/internal standard) of samples collected 0 and 60 min after the start of the reaction according to the formula described below. Remaining at 60 min (%)=peak area ratio of sample collected at 60 min/peak area ratio of sample collected at 0 min×100 [Results]

Another data set concerns the target KDM5A (Homo sapiens (Human), UniProt P29375). As to the kind of experiment: Biochemical KDM5A Inhibition Assay (HTRF). The settings on record: KDM5A protein, biotin-labelled H3K4-Me3 substrate. As to the method:
Biochemical KDM5A Inhibition Assay
Using 384-well white Greiner784075 (Greiner), representative compounds were characterized for their inhibition of KDM5A using HTRF® technology (Cisbio Bioassays). Briefly, the test compounds, reference compounds, and DMSO control (typical compound concentration range 1 μM-[…], final assay concentration (FAC*) of DMSO 0.5%) were added to 384-well plate by the Echo® acoustic dispensing platform (Labcyte). Five (5) 1l of KDM5A protein (produced by the method described in Nat Chem Biol 12, 531-538 (2016)). (5-20 nM FAC*) in assay buffer (50 mM MES, 50 mM NaCl, 1 mM TCEP, 0.01% v/v Tween 20, 0.03% BSA, pH 6.5) was added to wells and plates were incubated for 10-20 minutes at 25 degrees celsius. Then, 5 μl of alpha-ketoglutaric acid (100 μM FAC*), biotin-labelled H3K4-Me3 substrate (Anaspec Cat #AS-64357-1; 200 nM FAC*), Fe(II)SO4 (100 μM FAC*) and ascorbic acid (2 mM FAC*) in assay buffer was added to wells and plates were incubated for 20 minutes at room temperature. The reaction was stopped with the addition of 10 μl of anti-H3K4-Me2-Eu(K) (Cisbio Bioassays Cat #61KA2KAH; 0.75 nM FAC**)+Streptavidin XL665 (Cisbio Bioassays Cat #610SAXLB; 25 nM FAC**) in HTRF detection buffer (Cisbio Bioassays Cat #62SDBRDF). The mixture was incubated for 30 minutes at room temperature before 340 nm excitation and measurement of dual emission at 620 nm and 665 run. *FAC: final assay concentration calculated based on 10 μl of the assay buffer**FAC: final assay concentration calculated based on 20 μl of the detection buffer
The raw data (a 665 nm and a 620 nm reading from each well) for individual assay plates were analyzed. The ratio of emissions was calculated using the following calculation: Ratio=(665 nm emission/620 nm emission)×10000. […] Compound IC50 values were calculated from graphs of % inhibition plotted against compound concentration, using a four parameter curve fit. [Results]
For orientation: Time-resolved FRET reads energy transfer from a long-lived donor to a nearby acceptor.

[2] abbreviates: 0.5 mg/mL liver microsomes, 1.0 μM test compound, 1.0 mM NADPH, 37° C., 60 min.

The results in this text go back to patent US11691968B2, “Compound having KDM5 inhibitory activity and pharmaceutical use thereof” (ONO PHARMACEUTICAL CO., LTD., priority 2020, dated 2023).

KDM5A, sequence (P29375 whole entry): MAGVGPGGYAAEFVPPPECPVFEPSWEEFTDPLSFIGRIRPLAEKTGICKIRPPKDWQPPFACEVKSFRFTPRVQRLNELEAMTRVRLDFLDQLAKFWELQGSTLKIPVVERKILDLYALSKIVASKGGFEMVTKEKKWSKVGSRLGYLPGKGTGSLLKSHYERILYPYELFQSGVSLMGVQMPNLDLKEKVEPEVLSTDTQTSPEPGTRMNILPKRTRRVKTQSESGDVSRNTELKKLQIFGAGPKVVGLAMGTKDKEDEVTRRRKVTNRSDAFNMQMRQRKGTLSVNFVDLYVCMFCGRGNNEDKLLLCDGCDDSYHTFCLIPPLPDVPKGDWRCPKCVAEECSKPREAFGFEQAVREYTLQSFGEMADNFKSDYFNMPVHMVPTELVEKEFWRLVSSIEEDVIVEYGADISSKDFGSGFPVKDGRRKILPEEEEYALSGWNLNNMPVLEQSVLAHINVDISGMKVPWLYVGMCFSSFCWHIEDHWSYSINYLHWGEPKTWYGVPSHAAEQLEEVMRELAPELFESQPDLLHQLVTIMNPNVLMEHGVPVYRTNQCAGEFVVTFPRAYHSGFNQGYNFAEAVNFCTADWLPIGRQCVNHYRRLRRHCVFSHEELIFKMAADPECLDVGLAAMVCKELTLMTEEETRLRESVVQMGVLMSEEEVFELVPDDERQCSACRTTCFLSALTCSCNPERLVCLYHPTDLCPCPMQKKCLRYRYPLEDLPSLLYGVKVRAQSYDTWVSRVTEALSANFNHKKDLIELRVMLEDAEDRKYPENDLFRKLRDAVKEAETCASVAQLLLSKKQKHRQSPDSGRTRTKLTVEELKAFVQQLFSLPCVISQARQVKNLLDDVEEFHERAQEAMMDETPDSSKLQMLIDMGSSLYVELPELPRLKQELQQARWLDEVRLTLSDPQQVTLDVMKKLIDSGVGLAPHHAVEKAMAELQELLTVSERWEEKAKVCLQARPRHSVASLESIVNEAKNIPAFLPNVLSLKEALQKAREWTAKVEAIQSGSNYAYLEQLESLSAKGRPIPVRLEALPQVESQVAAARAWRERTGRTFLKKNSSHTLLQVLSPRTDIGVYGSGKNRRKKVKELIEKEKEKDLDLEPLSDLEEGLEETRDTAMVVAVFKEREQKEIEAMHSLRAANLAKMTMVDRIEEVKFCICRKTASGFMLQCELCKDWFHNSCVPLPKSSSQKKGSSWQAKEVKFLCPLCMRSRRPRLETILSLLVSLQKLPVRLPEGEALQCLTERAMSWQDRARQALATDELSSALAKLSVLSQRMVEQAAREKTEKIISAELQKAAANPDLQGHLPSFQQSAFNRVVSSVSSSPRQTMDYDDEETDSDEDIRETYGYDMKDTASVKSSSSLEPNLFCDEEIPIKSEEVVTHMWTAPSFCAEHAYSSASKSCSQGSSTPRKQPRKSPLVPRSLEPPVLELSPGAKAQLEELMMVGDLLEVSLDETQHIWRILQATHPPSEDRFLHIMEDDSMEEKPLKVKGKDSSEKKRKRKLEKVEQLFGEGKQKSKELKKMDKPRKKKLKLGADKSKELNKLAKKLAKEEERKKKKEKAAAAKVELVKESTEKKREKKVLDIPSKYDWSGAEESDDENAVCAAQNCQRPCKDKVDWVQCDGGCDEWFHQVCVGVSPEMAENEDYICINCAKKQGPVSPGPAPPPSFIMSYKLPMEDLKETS

For `CC(n1cnc(C(=O)N2C[C@@H]3C(C4=NOC(C)(C)C4)[C@@H]3C2)c1)C(F)(F)F` (stereo partly drawn) [Example 9, [(1R,5S,6r)-6-(5,5-dimethyl-4,5-dihydro-1,2-oxazol-3-yl)-3-azabicyclo[3.1.0]hex-3-yl][1-(1,1,1-trifluoropropan-2-yl)-1H-imidazol-4-yl]methanone], the “Metabolic stability in human liver microsomes (% remaining at 60 min)” value (shortened to “Metabolic stability … (% remaining at 60 min)”) in data set [1] (human, microsomes, 1 h) turned out to be 93%. On KDM5A, it took 400 nM to reach half-maximal inhibition (IC50).

Compound `C[C@@H](c1ccccc1C#N)n1cnc(C(=O)N2C[C@@H]3[C@H](C2)[C@H]3C2=NOC(C)(C)C2)c1` [Example 22, 2-[(1S)-1-(4-{[(1R,5S,6S)-6-(5,5-dimethyl-4,5-dihydro-1,2-oxazol-3-yl)-3-azabicyclo[3.1.0]hex-3-yl]carbonyl}-1H-imidazol-1-yl)ethyl]benzonitrile] gave an IC50 against KDM5A of 400 nM.

Regarding `C[C@@H](c1ccc(C#N)cc1)n1cnc(C(=O)N2C[C@@H]3[C@H](C2)[C@H]3C2=NOC(C)(C)C2)c1` [Example 24, 4-[(1S)-1-(4-{[(1R,5S,6S)-6-(5,5-dimethyl-4,5-dihydro-1,2-oxazol-3-yl)-3-azabicyclo[3.1.0]hex-3-yl]carbonyl}-1H-imidazol-1-yl)ethyl]benzonitrile], in data set [1] (human, microsomes, 1 h), the “Metabolic stability … (% remaining at 60 min)” value was determined as 101%. In addition, half-maximal inhibition against KDM5A (IC50) was put at 200 nM.

Regarding `C[C@@H](c1nccs1)n1cnc(C(=O)N2C[C@@H]3[C@H](C2)[C@H]3C2=NOC(C)(C)C2)c1` [Example 27, [(1R,5S,6S)-6-(5,5-dimethyl-4,5-dihydro-1,2-oxazol-3-yl)-3-azabicyclo[3.1.0]hex-3-yl]{1-[(1S)-1-(1,3-thiazol-2-yl)ethyl]-1H-imidazol-4-yl}methanone], the “Metabolic stability … (% remaining at 60 min)” value in data set [1] (human, microsomes, 1 h) worked out at 97%. In addition, the concentration for half-maximal inhibition (IC50) against KDM5A came out at 1000 nM.

Regarding `CC(C)n1cnc(C(=O)N2C[C@@H]3C(C4=NOC(C)(C(F)F)C4)[C@@H]3C2)c1` (stereo partly drawn) [Example 40, {(1R,5S,6r)-6-[5-(difluoromethyl)-5-methyl-4,5-dihydro-1,2-oxazol-3-yl]-3-azabicyclo[3.1.0]hex-3-yl}(1-isopropyl-1H-imidazol-4-yl)methanone], in data set [1] (setting [2]), the “Metabolic stability … (% remaining at 60 min)” value came out at 103%. The same compound yielded an IC50 against KDM5A of 200 nM.

Regarding `Cc1onc([C@H]2[C@@H]3CN(C(=O)c4cn(C(C)C)cn4)C[C@@H]32)c1-c1ccccc1` [Example 55, (1-isopropyl-1H-imidazol-4-yl)[(1R,5S,6r)-6-(5-methyl-4-phenyl-1,2-oxazol-3-yl)-3-azabicyclo[3.1.0]hex-3-yl]methanone], half-maximal inhibition against KDM5A (IC50) required 20 nM.

Compound `Cc1cc([C@H]2[C@@H]3CN(C(=O)c4cn(C(C)C)cn4)C[C@@H]32)no1` [Example 56, (1-isopropyl-1H-imidazol-4-yl)[(1R,5S,6r)-6-(5-methyl-1,2-oxazol-3-yl)-3-azabicyclo[3.1.0]hex-3-yl]methanone] registered an IC50 against KDM5A of 200 nM.

`CC(C)n1cnc(C(=O)N2C[C@@H]3[C@H](C2)[C@H]3C2=NOC(C)(C)N2C)c1` [Example 59, (1-isopropyl-1H-imidazol-4-yl)[(1R,5S,6r)-6-(4,5,5-trimethyl-4,5-dihydro-1,2,4-oxadiazol-3-yl)-3-azabicyclo[3.1.0]hex-3-yl]methanone]: the “Metabolic stability … (% remaining at 60 min)” value in data set [1] (human, microsomes, 1 h) is 100%. At KDM5A, this compound came in with a half-maximal inhibitory concentration (IC50) of 20 nM.

Consider `CCN1C([C@H]2[C@@H]3CN(C(=O)c4cn(C(C)C)cn4)C[C@@H]32)=NOC1(C)C` [Example 60, [(1R,5S,6r)-6-(4-ethyl-5,5-dimethyl-4,5-dihydro-1,2,4-oxadiazol-3-yl)-3-azabicyclo[3.1.0]hex-3-yl](1-isopropyl-1H-imidazol-4-yl)methanone], for which the “Metabolic stability … (% remaining at 60 min)” value in data set [1] (human, microsomes, 1 h) was found to be 102%. Also, 200 nM corresponded to half-maximal inhibition against KDM5A (IC50).

In the case of `CC(C)n1cnc(C(=O)N2C[C@@H]3[C@H](C2)[C@H]3c2nnn3ccccc23)c1` [Example 62, (1-isopropyl-1H-imidazol-4-yl)[(1R,5S,6r)-6-([1,2,3]triazolo[1,5-a]pyridin-3-yl)-3-azabicyclo[3.1.0]hex-3-yl]methanone], the “Metabolic stability … (% remaining at 60 min)” value in data set [1] (human, microsomes, 1 h) is reported as 83%. Besides, at KDM5A, the midpoint of inhibition, the IC50, lay at 10 nM.

Consider `CC(C)n1cnc(C(=O)N2C[C@@H]3[C@H](C2)[C@H]3c2nnn[nH]2)c1` [Example 63, (1-isopropyl-1H-imidazol-4-yl)[(1R,5S,6r)-6-(1H-tetrazol-5-yl)-3-azabicyclo[3.1.0]hex-3-yl]methanone], for which, at KDM5A, the IC50 is 10 nM.

With `CC(C)n1cnc(C(=O)N2C[C@@H]3[C@H](C2)[C@H]3C(=O)NC(C)(C)C)c1` [Example 65, (1R,5S,6r)-N-tert-butyl-3-[1-(propan-2-yl)-1H-imidazole-4-carbonyl]-3-azabicyclo[3.1.0]hexane-6-carboxamide], in data set [1] (setting [2]), the “Metabolic stability … (% remaining at 60 min)” value is 93%. The compound further gave a 50% inhibitory concentration (IC50) against KDM5A of 20 nM.

Turning to `CC(C)n1cnc(C(=O)N2C[C@@H]3[C@H](C2)[C@H]3C(=O)N(C)C(C)(C)C)c1` [Example 66, (1R,5S,6r)-N-tert-butyl-N-methyl-3-[1-(propan-2-yl)-1H-imidazole-4-carbonyl]-3-azabicyclo[3.1.0]hexane-6-carboxamide], in data set [1] (setting [2]), the “Metabolic stability … (% remaining at 60 min)” value is 89%. Further, half-maximal inhibition on KDM5A (IC50) required 30 nM.

`CC(C)n1cnc(C(=O)N2C[C@@H]3[C@H](C2)[C@H]3C(=O)c2cccs2)c1` [Example 76, (1-isopropyl-1H-imidazol-4-yl)[(1R,5S,6r)-6-(2-thienylcarbonyl)-3-azabicyclo[3.1.0]hex-3-yl]methanone] showed an IC50 against KDM5A of 60 nM.

On to `Cc1csc(C(=O)[C@H]2[C@@H]3CN(C(=O)c4cn(C(C)C)cn4)C[C@@H]32)c1` [Example 77, (1-isopropyl-1H-imidazol-4-yl){(1R,5S,6r)-6-[(4-methyl-2-thienyl)carbonyl]-3-azabicyclo[3.1.0]hex-3-yl}methanone], for which the IC50 at KDM5A was determined as 20 nM.

With `Cc1cc([C@H]2[C@@H]3CN(C(=O)c4cc(C(C)C)[nH]n4)C[C@@H]32)no1` [Example 103, (5-isopropyl-1H-pyrazol-3-yl)[(1R,5S,6r)-6-(5-methyl-1,2-oxazol-3-yl)-3-azabicyclo[3.1.0]hex-3-yl]methanone], the IC50 at KDM5A worked out at 200 nM.

Take `Cc1c([C@H]2[C@@H]3CN(C(=O)c4cc(C(C)C)[nH]n4)C[C@@H]32)noc1C(F)F` [Example 104, {(1R,5S,6r)-6-[5-(difluoromethyl)-4-methyl-1,2-oxazol-3-yl]-3-azabicyclo[3.1.0]hex-3-yl}(5-isopropyl-1H-pyrazol-3-yl)methanone]: it took 40 nM to reach half-maximal inhibition on KDM5A (IC50).

On to `Cc1onc([C@H]2[C@@H]3CN(C(=O)c4cc(C(C)C)[nH]n4)C[C@@H]32)c1-c1ccccn1` [Example 106, (5-isopropyl-1H-pyrazol-3-yl){(1R,5S,6r)-6-[5-methyl-4-(2-pyridinyl)-1,2-oxazol-3-yl]-3-azabicyclo[3.1.0]hex-3-yl}methanone], for which, on KDM5A, half-maximal inhibition (IC50) required 40 nM.

`CC(C)c1cc(C(=O)N2C[C@@H]3[C@H](C2)[C@H]3c2nnn3ccccc23)n[nH]1` [Example 132, (5-isopropyl-1H-pyrazol-3-yl)[(1R,5S,6r)-6-([1,2,3]triazolo[1,5-a]pyridin-3-yl)-3-azabicyclo[3.1.0]hex-3-yl]methanone] yielded an IC50 at KDM5A of 40 nM.

On to `CC(C)c1cc(C(=O)N2C[C@@H]3[C@H](C2)[C@H]3c2nnn[nH]2)n[nH]1` [Example 134, (5-isopropyl-1H-pyrazol-3-yl)[(1R,5S,6r)-6-(1H-tetrazol-5-yl)-3-azabicyclo[3.1.0]hex-3-yl]methanone], for which, at KDM5A, the IC50 worked out at 4 nM.

Regarding `CC(C)c1cc(C(=O)N2C[C@@H]3[C@H](C2)[C@H]3C(=O)N(C)C2(C)CC2)n[nH]1` [Example 138, (1R,5S,6r)-N-methyl-N-(1-methylcyclopropyl)-3-[5-(propan-2-yl)-1H-pyrazole-3-carbonyl]-3-azabicyclo[3.1.0]hexane-6-carboxamide], the IC50 at KDM5A is 800 nM.

For orientation: IC50 means the concentration that gives 50% inhibition. A higher IC50 goes with weaker potency.
